# Experiments:
# [1] = biological target: T1, 20S proteasome extracted from rat liver, peptidyl-glutamyl-peptide-hydrolyzing (PGPH) enzyme activity (Rattus norvegicus, UniProt P28073+Q9JHW0); experiment: Proteasome inhibition, PGPH activity, fluorescent peptide Z-leu-leu-Glu-βNA; assay type: biochemical; settings: rat liver 20S proteasome, 37° C., 1 h
# T1 construct: 20S proteasome extracted from rat liver; from tissue; host or cells: rat liver
# Outline: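 Rat liver 20S proteasome (1 μg) incubated 1 h at 37 °C with compounds, 50 μM fluorogenic peptide and 20 mM Tris-HCl. AMC release read at 380/440 nm and βNA release at 335/410 nm. Inhibition rate calculated against a 0.1% DMSO solvent control.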
# [2] = test system: HL-60 human leukemia cell; experiment: Preliminary anti-tumor screening in vitro, MTT method; assay type: cell-based; set-up: key to Test results: +++: inhibition rates at three doses are greater than 50%; ++: inhibition rates at two doses are greater than 50%; +: inhibition rate at one dose is greater than 50%; settings: HL-60, MTT; for Test results: number of doses with inhibition > 50%; for inhibition at 0.05 µM / inhibition at 0.5 µM / inhibition at 5 µM: Homo sapiens, read-out: Inhibition rate %
# Outline: (§1)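 In vitro cytotoxicity by routine methods: MTT read-out for HL-60 cells, SRB read-out for BGC-823, Bel-7402 and KB cells.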
# [3] = test system: BGC-823 human gastric cancer cell; experiment: Preliminary anti-tumor screening in vitro, SRB method; assay type: cell-based; set-up: key to Test results: +++: inhibition rates at three doses are greater than 50%; ++: inhibition rates at two doses are greater than 50%; +: inhibition rate at one dose is greater than 50%; settings: BGC-823, SRB; for Test results: number of doses with inhibition > 50%; for inhibition at 0.05 µM / inhibition at 0.5 µM / inhibition at 5 µM: Homo sapiens, read-out: Inhibition rate %
# Outline: as §1
# [4] = test system: Bel-7402 human hepatocarcinoma cell; experiment: as above; assay type: cell-based; set-up: key to Test results: +++: inhibition rates at three doses are greater than 50%; ++: inhibition rates at two doses are greater than 50%; +: inhibition rate at one dose is greater than 50%; settings: Bel-7402, SRB; for Test results: number of doses with inhibition > 50%; for inhibition at 0.05 µM / inhibition at 0.5 µM / inhibition at 5 µM: Homo sapiens, read-out: Inhibition rate %
# Outline: as §1
# [5] = test system: KB human nasopharyngeal carcinoma cell; experiment: as above; assay type: cell-based; set-up: key to Test results: +++: inhibition rates at three doses are greater than 50%; ++: inhibition rates at two doses are greater than 50%; +: inhibition rate at one dose is greater than 50%; settings: for inhibition at 0.05 µM / inhibition at 0.5 µM / inhibition at 5 µM: Homo sapiens, read-out: Inhibition rate %; for Test results: number of doses with inhibition > 50%
# Outline: as §1
# [6] = test system: BGC-823 (human gastric carcinoma cell strain); experiment: In vitro anti-tumor activity (IC50), standard MTT method; assay type: cell-based; settings: 72 h, average of three determinations
# Procedure: (§2) HL-60, BXPC-3 and U266 were obtained from the American Type Culture Collection (Manassas, Va.), and BGC-823 (human gastric carcinoma cell strain) was obtained from China Pharmaceutical University.
# (§3) Test methods: HL-60 cells were cultured in IMDM medium containing 20% fetal bovine serum at 37° C. in 5% CO2; BGC-823 cells and BXPC-3 cells were cultured in RPMI1640 medium containing 10% fetal bovine serum at 37° C. in 5% CO2; U266 cells were cultured in RPMI1640 medium containing 15% fetal bovine serum at 37° C. in 5% CO2.
# (§4) The cell growth was measured by the standard MTT method. A dispersions (150 μL, containing 3000 cells) medium was added into each well of a 96-well plate and allowed to grow, after 24 h, ten kinds of medium (50 μL) containing different concentrations of drugs were added into the corresponding wells, and continued to incubate for 72 h. Then a solution containing 5 mg/ml MTT (20 μL) was added into each well and incubated for another 4 h at 37° C. The plate was then centrifugated at 1000 rpm at 4° C. for 5 min, and the medium in upper layer was carefully discarded. The precipitates were dissolved in 100 μL of DMSO, and absorbance was read with an Infinite M200 (Tecan, Austria) microplate reader at 540 nm.
# (§5) The result was expressed as IC50 value, which is the average value of three independent determinations.
# [7] = test system: BXPC-3 (human pancreatic cancer cell strain); experiment: as above; assay type: cell-based; settings: 72 h, average of three determinations
# Procedure: as §2, §3, §4, §5
# [8] = test system: HL-60 (promyelocytic leukemia cell strain); experiment: as above; assay type: cell-based; settings: Homo sapiens, 72 h, average of three determinations
# Procedure: as §2, §3, §4, §5
# [9] = test system: U266 (multiple myeloma cell strain); experiment: as above; assay type: cell-based; settings: Homo sapiens, U-266, 72 h, average of three determinations
# Procedure: as §2, §3, §4, §5
# murine H22 cells = experiment: In vivo anti-tumor activity, H22 tumor in ICR mice, oral administration; settings: for Animal numbers Start/End / Body weight (g) (X ± SD): ICR mice with H22; for Inhibition rate (%) / Tumor weight (g) (X ± SD): tumors weighed at 12th day
# Procedure: Animal: ICR mice, half male and half female (18-22 g), provided by Laboratory Animal Science Department of Peking Medical University.
# Tumor cell strain: murine H22 cells were provided by cell bank of pharmacological group of the State Key Laboratory of Natural and Biomimetic Drugs.
# Method: Murine tumor cells were taken to be treated, and diluted to 5×10^6 cells/ml after treatment. The diluted tumor cells solution was inoculated to the left forelimb oxter of the mice with 0.2 ml/mouse under aseptic condition. 24 h after inoculation, the mice were divided into groups and orally administered once per day to the mice in each group for 10 days. At the 12th day, the tumors were peeled off and weighed, and the average weight of the tumor, standard deviation (SD) and p-value of each group were calculated.
# [10] = 1 mg/kg orally once per day for 10 days
# [11] = 2 mg/kg orally once per day for 10 days
SMILES,IC50 [1] [µM],Test results [2],inhibition at 0.05 µM [2] [%],inhibition at 0.5 µM [2] [%],inhibition at 5 µM [2] [%],Test results [3],inhibition at 0.05 µM [3] [%],inhibition at 0.5 µM [3] [%],inhibition at 5 µM [3] [%],Test results [4],inhibition at 0.05 µM [4] [%],inhibition at 0.5 µM [4] [%],inhibition at 5 µM [4] [%],inhibition at 0.05 µM [5] [%],inhibition at 0.5 µM [5] [%],inhibition at 5 µM [5] [%],Test results [5],IC50 [6] [µM],IC50 [7] [µM],IC50 [8] [µM],other results
"CC(C)C[C@H](NC(=O)[C@H](Cc1ccc2ccccc2c1)NC(=O)[C@H](CC(C)C)NC(=O)c1cnccn1)B(O)O [Compound 6f, N-pyrazineformyl-L-leucyl-L-naphthylalanyl-L-leucine Boronic Acid]",0.00363 ± 0.00167,++,1.26,87.4,88.6,+++,80.3,95.5,96.8,++,39.4,90.6,93.7,32.1,95.7,97.8,++,0.6,0.0212,0.0046,IC50 [9]: 0.0099 µM; Animal numbers Start/End (murine H22 cells; [10]): 8/6; Body weight (g) (X ± SD) (murine H22 cells; [10]): 1.49 ± 1.07 g; Inhibition rate (%) (murine H22 cells; [10]): 51.67%; Tumor weight (g) (X ± SD) (murine H22 cells; [10]): 0.60 ± 0.16 g; Animal numbers Start/End (murine H22 cells; [11]): 8/5; Body weight (g) (X ± SD) (murine H22 cells; [11]): 0.04 ± 4.29 g; Inhibition rate (%) (murine H22 cells; [11]): 55.34%; Tumor weight (g) (X ± SD) (murine H22 cells; [11]): 0.56 ± 0.17 g
"CC(C)C[C@H](NC(=O)[C@H](Cc1ccc2ccccc2c1)NC(=O)[C@H](Cc1ccccc1)NC(=O)c1cnccn1)B(O)O [Compound 6g, N-pyrazineformyl-L-phenylalanyl-L-naphthylalanyl-L-leucine Boronic Acid]",0.0038 ± 0.000983,++,5.68,87.8,88.6,+++,76.9,95.5,97.1,++,37.9,72.2,93.4,59.4,96,96.7,+++,1.04,0.0287,0.0074,"IC50 [9]: 0.0158 µM; Animal numbers Start/End (murine H22 cells; [10]): 8/8; Body weight (g) (X ± SD) (murine H22 cells; [10]): -1.28 ± 2.83 g; Inhibition rate (%) (murine H22 cells; [10]): 34.24%; Tumor weight (g) (X ± SD) (murine H22 cells; [10]): 0.82 ± 0.36 g; Animal numbers Start/End (murine H22 cells; [11]): 8/8; Body weight (g) (X ± SD) (murine H22 cells; [11]): -0.53 ± 2.58 g; Inhibition rate (%) (murine H22 cells; [11]): 56.33%; Tumor weight (g) (X ± SD) (murine H22 cells; [11]): 0.54 ± 0.28 g; Toxicity in the in vivo anti-tumor test, compared with bortezomib (PS341) (murine H22 cells; ICR mice with H22, oral): even lower"
